From ChEMBL document CHEMBL3864161, “5-Aminopyrazole-4-carboxamide analogues are selective inhibitors of Plasmodium falciparum microgametocyte exflagellation and potential malaria transmission blocking agents” (Bioorg Med Chem Lett, 2016)

Key:
[1] = Cytotoxicity against human CRL8155 cells assessed as growth inhibition after 48 to 72 hrs by Alamar blue assay; format: toxicity, cell-based
[2] = Cytotoxicity against human HepG2 cells assessed as growth inhibition after 48 to 72 hrs by Alamar blue assay; format: toxicity, cell-based
[3] = Inhibition of recombinant Plasmodium falciparum CDPK4 S147M mutant using Syntide 2 as substrate assessed as decrease in depletion of ATP by Kinase glo luciferase assay
[4] = biological target: T1, Calmodulin-domain protein kinase 1 (Toxoplasma gondii, UniProt Q9BJF5)
T1 sequence (Q9BJF5 whole entry): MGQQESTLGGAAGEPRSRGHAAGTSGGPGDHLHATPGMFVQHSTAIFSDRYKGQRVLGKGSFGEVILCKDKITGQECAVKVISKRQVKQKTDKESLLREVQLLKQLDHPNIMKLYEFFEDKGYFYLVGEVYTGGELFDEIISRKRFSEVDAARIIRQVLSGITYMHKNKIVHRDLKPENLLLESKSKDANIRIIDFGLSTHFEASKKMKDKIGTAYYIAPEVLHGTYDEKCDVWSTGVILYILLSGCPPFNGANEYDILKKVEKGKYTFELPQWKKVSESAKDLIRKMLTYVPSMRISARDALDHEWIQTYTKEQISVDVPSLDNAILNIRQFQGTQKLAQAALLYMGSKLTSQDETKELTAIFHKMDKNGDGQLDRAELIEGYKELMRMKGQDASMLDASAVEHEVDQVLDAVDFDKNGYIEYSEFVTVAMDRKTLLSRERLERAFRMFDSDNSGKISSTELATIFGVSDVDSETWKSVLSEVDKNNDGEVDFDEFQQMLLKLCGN

Plasmodium falciparum [5] = assay: Inhibition of male gametocytes exflagellation of Plasmodium falciparum at 1 uM relative to control; format: functional
[6] = biological target: Proto-oncogene tyrosine-protein kinase Src (Homo sapiens, UniProt P12931)
Plasmodium falciparum [7] = assay: microbe, parasite or virus in culture; conditions: read-out: INH

Sequence of Proto-oncogene tyrosine-protein kinase Src (P12931 2-536 limits assumed): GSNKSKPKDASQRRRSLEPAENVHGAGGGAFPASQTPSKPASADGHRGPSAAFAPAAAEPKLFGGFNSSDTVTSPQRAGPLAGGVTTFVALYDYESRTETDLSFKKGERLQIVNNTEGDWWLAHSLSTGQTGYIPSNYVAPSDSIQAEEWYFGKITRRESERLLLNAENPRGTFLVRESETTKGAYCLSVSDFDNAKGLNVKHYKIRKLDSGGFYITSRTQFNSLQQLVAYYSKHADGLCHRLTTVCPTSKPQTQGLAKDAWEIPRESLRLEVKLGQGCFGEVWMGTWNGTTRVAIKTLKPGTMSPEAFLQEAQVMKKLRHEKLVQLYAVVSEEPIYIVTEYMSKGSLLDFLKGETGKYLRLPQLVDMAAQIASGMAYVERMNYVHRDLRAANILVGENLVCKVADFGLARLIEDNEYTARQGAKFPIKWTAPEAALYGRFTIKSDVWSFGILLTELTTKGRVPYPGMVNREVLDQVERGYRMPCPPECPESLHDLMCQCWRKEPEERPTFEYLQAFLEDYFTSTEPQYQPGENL

Row | Compound | EC50 [1] | EC50 [2] | IC50 [3] | IC50 [4] | inhibition at 1 µM (Plasmodium falciparum [5]) | IC50 [6] | inhibition at 0.1 µM (Plasmodium falciparum [7])
1 | CC(C)(C)n1nc(-c2cnc3cc(OC4CC4)ccc3c2)c(C(N)=O)c1N | > 30000 nM | > 30000 nM | > 2000 nM |  |  |  | 
2 | CC(C)n1nc(-c2ccc3nc(OC4CCC4)ccc3c2)c(C(N)=O)c1N | > 30000 nM | > 30000 nM | > 2000 nM | 8 nM | 87% |  | 
3 | CCOc1ccc2cc(-c3nn(C4CCOC4)c(N)c3C(N)=O)cnc2c1 (stereo unspecified) |  |  |  | 12 nM |  | > 10000 nM | 
4 | COc1ccc2cc(-c3nn(C(C)(C)C)c(N)c3C(N)=O)cnc2c1 | > 30000 nM | > 30000 nM | > 2000 nM |  | 87% |  | 
5 | CCOc1ccc2cc(-c3nn(C(C)C(C)C)c(N)c3C(N)=O)cnc2c1 (stereo unspecified) |  |  |  | 18 nM |  |  | 
6 | CCOc1ccc2cc(-c3nn(C(C)(C)C)c(N)c3C(N)=O)cnc2c1 | > 30000 nM | > 30000 nM | > 2000 nM |  |  |  | 
7 | CC(C)(C)n1nc(-c2ccc3nc(OC4CC4)ccc3c2)c(C(N)=O)c1N |  |  |  | 5 nM |  |  | 
8 | CCOc1ccc2cc(-c3nn(C(C)(C)C)c(N)c3C(N)=O)ccc2c1 | > 30000 nM | > 30000 nM | > 2000 nM |  | 87% |  | 
9 | CCOc1ccc2cc(-c3nn(CC(C)(C)CO)c(N)c3C(N)=O)cnc2c1 | > 30000 nM | > 30000 nM | > 2000 nM |  | 87% | > 10000 nM | 81%
10 | CCOc1ccc2cc(-c3nn(C(C)C4CC4)c(N)c3C(N)=O)cnc2c1 (stereo unspecified) |  |  |  | 14 nM |  |  | 
11 | CCOc1ccc2cc(-c3nn(C(C)C(C)(C)CO)c(N)c3C(N)=O)cnc2c1 (stereo unspecified) |  |  |  | 24 nM |  |  | 
12 | NC(=O)c1c(-c2ccc3ccccc3c2)nn(CC(F)(F)F)c1N | > 30000 nM | > 30000 nM | > 2000 nM |  | 87% |  | 
13 | CCOc1ccc2cc(-c3nn(C(C)C)c(N)c3C(N)=O)ccc2n1 |  |  |  | 7 nM |  |  | 
14 | CCOc1ccc2cc(-c3nn(C(C)C)c(N)c3C(N)=O)cnc2c1 | > 30000 nM | > 30000 nM | > 2000 nM |  | 87% |  | 
15 | CCOc1ccc2cc(-c3nn(C4CCCCC4)c(N)c3C(N)=O)ccc2n1 | > 30000 nM | > 30000 nM | > 2000 nM | 6 nM | 87% |  | 39%
16 | CC(C)(C)n1nc(-c2ccc3cc(O)ccc3c2)c(C(N)=O)c1N | > 30000 nM | > 30000 nM | > 2000 nM |  | 87% |  | 64%
